Source: ChEMBL document CHEMBL1201862, “PubChem BioAssay data set” (2004)
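Five compound concentrations were applied to cells in 96-well plates for 48 hours; endpoints were derived by simple linear interpolation of the resulting dose-response curve. GI50 marks 50% less growth.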 Activity calls are given as the source filed them. No stated cut-off is given here; in the data, active = GI50 up to about 1.1 µM and inactive = higher.

How the values were obtained:
Assay in all cases: growth of human tumour cells (NCI), 48 h
NCI-H23 = test system: NCI-H23
SR = test system: SR
NCI-H460 = test system: NCI-H460
SNB-75 = test system: SNB-75
SF-295 = test system: SF-295
OVCAR-5 = test system: OVCAR-5
OVCAR-3 = test system: OVCAR-3
LOX IMVI = test system: LOX IMVI
U-251 = test system: U-251
HCT-116 = test system: HCT-116
NCI-H226 = test system: NCI-H226
MOLT-4 = test system: MOLT-4
DMS-273 = test system: DMS-273
HL-60 = test system: HL-60
XF498 = test system: XF498
SK-OV-3 = test system: SK-OV-3
EKVX = test system: EKVX
M14 = test system: M14
HT-29 = test system: HT-29
UACC-257 = test system: UACC-257
OVCAR-8 = test system: OVCAR-8
HOP-18 = test system: HOP-18
RPMI-8226 = test system: RPMI-8226
DMS-114 = test system: DMS-114
LXFL 529 = test system: LXFL 529
SN12C = test system: SN12C
HCT-15 = test system: HCT-15
NCI-H522 = test system: NCI-H522
SK-MEL-2 = test system: SK-MEL-2
UO-31 = test system: UO-31
IGROV-1 = test system: IGROV-1
KM-20L2 = test system: KM-20L2
CCRF-CEM = test system: CCRF-CEM
A549 = test system: A549
M19-MEL = test system: M19-MEL
COLO 205 = test system: COLO 205
SNB-19 = test system: SNB-19
K562 = test system: K562
CAKI-1 = test system: CAKI-1
KM12 = test system: KM12
A498 = test system: A498
SW-620 = test system: SW-620
UACC-62 = test system: UACC-62
SF-539 = test system: SF-539
SF-268 = test system: SF-268
HCC 2998 = test system: HCC 2998
786-0 = test system: 786-0
ACHN = test system: ACHN
HOP-92 = test system: HOP-92
HOP-62 = test system: HOP-62
SK-MEL-5 = test system: SK-MEL-5
RXF 393 = test system: RXF 393
TK-10 = test system: TK-10
SNB-78 = test system: SNB-78
OVCAR-4 = test system: OVCAR-4
SK-MEL-28 = test system: SK-MEL-28
DLD-1 = test system: DLD-1
Malme-3M = test system: Malme-3M

**Q.** For `O=C1c2ccccc2C2CCC1c1ccccc12` (stereo not drawn), which GI50 (NCI-H23) is on record?
**A.** 24 µM (inactive)

**Q.** And the GI50 (SR)?
**A.** 20.5 µM (inactive)

**Q.** What about the GI50 (NCI-H460) of the same molecule?
**A.** 33.3 µM (inactive)

**Q.** What about the GI50 (SNB-75) of the same molecule?
**A.** 24.5 µM (inactive)

**Q.** What about the GI50 (SF-295) of the same molecule?
**A.** 33.4 µM (inactive)

**Q.** What about the GI50 (OVCAR-5) of the same molecule?
**A.** > 100 µM (inactive)

**Q.** And the GI50 (OVCAR-3)?
**A.** 30.5 µM (inactive)

**Q.** What about the GI50 (LOX IMVI) of the same molecule?
**A.** 36.3 µM (inactive)

**Q.** And the GI50 (U-251)?
**A.** 39.5 µM (inactive)

**Q.** What about the GI50 (HCT-116) of the same molecule?
**A.** 19.6 µM (inactive)

**Q.** And the GI50 (NCI-H226)?
**A.** 45.6 µM (inactive)

**Q.** What about the GI50 (MOLT-4) of the same molecule?
**A.** 18 µM (inactive)

**Q.** And the GI50 (DMS-273)?
**A.** 27.4 µM (inactive)

**Q.** What about the GI50 (HL-60) of the same molecule?
**A.** 15 µM (inactive)

**Q.** What about the GI50 (XF498) of the same molecule?
**A.** 29.5 µM (inactive)

**Q.** And the GI50 (SK-OV-3)?
**A.** 41.5 µM (inactive)

**Q.** What about the GI50 (EKVX) of the same molecule?
**A.** 43.4 µM (inactive)

**Q.** What about the GI50 (M14) of the same molecule?
**A.** 36.5 µM (inactive)

**Q.** What about the GI50 (HT-29) of the same molecule?
**A.** 29.9 µM (inactive)

**Q.** And the GI50 (UACC-257)?
**A.** 25.3 µM (inactive)

**Q.** And the GI50 (OVCAR-8)?
**A.** 43.2 µM (inactive)

**Q.** And the GI50 (HOP-18)?
**A.** 73.6 µM (inactive)

**Q.** And the GI50 (RPMI-8226)?
**A.** 16 µM (inactive)

**Q.** And the GI50 (DMS-114)?
**A.** 19.4 µM (inactive)

**Q.** What about the GI50 (LXFL 529) of the same molecule?
**A.** 36.3 µM (inactive)

**Q.** What about the GI50 (SN12C) of the same molecule?
**A.** 43.8 µM (inactive)

**Q.** What about the GI50 (HCT-15) of the same molecule?
**A.** 30.6 µM

**Q.** And the GI50 (NCI-H522)?
**A.** 25 µM (inactive)

**Q.** And the GI50 (SK-MEL-2)?
**A.** 32.1 µM (inactive)

**Q.** What about the GI50 (UO-31) of the same molecule?
**A.** 21.1 µM (inactive)

**Q.** What about the GI50 (IGROV-1) of the same molecule?
**A.** 62.2 µM (inactive)

**Q.** And the GI50 (KM-20L2)?
**A.** 32.8 µM (inactive)

**Q.** What about the GI50 (CCRF-CEM) of the same molecule?
**A.** 23.9 µM (inactive)

**Q.** And the GI50 (A549)?
**A.** 25.2 µM (inactive)

**Q.** What about the GI50 (M19-MEL) of the same molecule?
**A.** 25.6 µM (inactive)

**Q.** And the GI50 (COLO 205)?
**A.** 19.2 µM (inactive)

**Q.** What about the GI50 (SNB-19) of the same molecule?
**A.** 65 µM (inactive)

**Q.** And the GI50 (K562)?
**A.** 23.6 µM (inactive)

**Q.** What about the GI50 (CAKI-1) of the same molecule?
**A.** 34.8 µM (inactive)

**Q.** And the GI50 (KM12)?
**A.** 31.6 µM (inactive)

**Q.** What about the GI50 (A498) of the same molecule?
**A.** 58.6 µM (inactive)

**Q.** And the GI50 (SW-620)?
**A.** 39.2 µM (inactive)

**Q.** What about the GI50 (UACC-62) of the same molecule?
**A.** 34.6 µM (inactive)

**Q.** What about the GI50 (SF-539) of the same molecule?
**A.** 64 µM (inactive)

**Q.** What about the GI50 (SF-268) of the same molecule?
**A.** 31.1 µM (inactive)

**Q.** What about the GI50 (HCC 2998) of the same molecule?
**A.** 53.1 µM (inactive)

**Q.** And the GI50 (786-0)?
**A.** 38.8 µM (inactive)

**Q.** What about the GI50 (ACHN) of the same molecule?
**A.** 25.6 µM (inactive)

**Q.** What about the GI50 (HOP-92) of the same molecule?
**A.** 20.3 µM (inactive)

**Q.** What about the GI50 (HOP-62) of the same molecule?
**A.** 48 µM (inactive)

**Q.** And the GI50 (SK-MEL-5)?
**A.** 16.3 µM (inactive)

**Q.** And the GI50 (RXF 393)?
**A.** 24.4 µM (inactive)

**Q.** What about the GI50 (TK-10) of the same molecule?
**A.** 34.9 µM (inactive)

**Q.** What about the GI50 (SNB-78) of the same molecule?
**A.** 29.9 µM (inactive)

**Q.** What about the GI50 (OVCAR-4) of the same molecule?
**A.** 30.1 µM (inactive)

**Q.** What about the GI50 (SK-MEL-28) of the same molecule?
**A.** 32.9 µM (inactive)

**Q.** And the GI50 (DLD-1)?
**A.** 33.5 µM (inactive)

**Q.** What about the GI50 (Malme-3M) of the same molecule?
**A.** 18.3 µM (inactive)
